Results as given in patent US6306897A, “Calanolides for inhibiting BTK” (Parker Hughes Institute, priority 1999, dated 2001).

Tests used:
recombinant BTK = biological target: T1, recombinant BTK (Mus musculus, UniProt P35991); assay: Recombinant BTK immune-complex kinase assay (baculovirus vector expression system); assay type: biochemical, murine; settings: for inhibition of recombinant BTK, concentration dependence: BTK expressed in a baculovirus vector expression system; for IC50: recombinant BTK, kinase assay (Table 1)
T1 construct: made in house; host or cells: Insect cells (Sf21, IPLB-SF21-AE) with recombinant baculovirus from pFastBac1-BTK
T1 sequence (P35991 whole entry): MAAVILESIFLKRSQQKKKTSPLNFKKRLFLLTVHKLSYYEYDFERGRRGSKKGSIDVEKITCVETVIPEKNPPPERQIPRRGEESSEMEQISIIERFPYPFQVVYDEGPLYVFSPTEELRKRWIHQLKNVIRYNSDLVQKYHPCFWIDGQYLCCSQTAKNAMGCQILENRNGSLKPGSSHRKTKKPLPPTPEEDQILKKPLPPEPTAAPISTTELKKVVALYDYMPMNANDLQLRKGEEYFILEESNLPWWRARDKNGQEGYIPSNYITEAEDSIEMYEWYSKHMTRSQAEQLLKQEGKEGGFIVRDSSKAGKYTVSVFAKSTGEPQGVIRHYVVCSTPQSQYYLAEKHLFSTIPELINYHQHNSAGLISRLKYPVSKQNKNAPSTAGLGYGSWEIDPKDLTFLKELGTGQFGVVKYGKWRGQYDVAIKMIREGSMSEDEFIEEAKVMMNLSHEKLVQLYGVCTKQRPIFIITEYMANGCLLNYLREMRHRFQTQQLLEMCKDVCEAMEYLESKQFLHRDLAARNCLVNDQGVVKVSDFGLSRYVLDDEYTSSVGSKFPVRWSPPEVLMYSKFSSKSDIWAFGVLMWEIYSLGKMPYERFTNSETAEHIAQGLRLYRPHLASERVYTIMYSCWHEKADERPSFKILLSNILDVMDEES
Experimental: The effects of calanolides on the enzymatic activity of the tyrosine kinase BTK in kinase assays was evaluated using recombinant BTK, according to the methods previously reported (Mahajan et al., 1999, J Biol. Chem., 274:9587-9599).
Sf21 (IPLB-SF21-AE) cells, derived from the ovarian tissue of the fall armyworm Spodotera frugiperda, were obtained from Invitrogen and maintained at 26-28° C. in Grace's insect cell medium supplemented with 10% FBS and 1.0% antibiotic/antimycotic (GIBCO-BRL). Stock cells were maintained in suspension at 0.2-1.6×10^6 /ml in 600 ml total culture volume in 1 L Bellco spinner flasks at 60-90 rpm. Cell viability was maintained at 95-100% as determined by trypan blue dye exclusion.
To construct the recombinant baculovirus containing the murine BTK gene, the gene encoding BTK was excised from pBluescript SKII^+ vector (Stratagene) by digestion with BamHI. This fragment was then ligated into pFastBac1 (Gibco-BRL). The resulting vector, pFastBac1-BTK, was used to generate the recombinant baculovirus by site-specific transposition in E. coli DH10Bac cells (Gibco-BRL), which harbor a baculovirus shuttle vector (bacmid), bMON14272. The resulting recombinant bacmid DNA was introduced into insect cells by transfection with the standard liposome-mediated method using Cellfectin reagent (Gibco-BRL). Four days later, transfection supernatants were harvested for subsequent plaque purification and analyzed.
Immunoprecipitations, immune-complex protein kinase assays, and immunoblotting using the ECL chemiluminescence detection system (Amersham Life Sciences) were conducted as described previously (Mahajan et al., 1999, J. Biol. Chem., 274:9587-9599). Following electrophoresis, kinase gels were dried onto Whatman 3M filter paper and subjected to phosphoimaging on a Molecular Imager (Bio-Rad, Hercules, Calif.) as well as autoradiography on film. Similarly, all chemiluminescent BTK Western blots were subjected to three dimesional densitometric scanning using the Molecular Imager and Imaging Densitometer using the Molecular Analyst/Macontosh version 2.1 software following the specifications of the manufacturer (Bio-Rad). For each drug concentration, a BTK kinase activity index was determined by comparing the ratios of the kinase activity in phosphorimager units (PIU) and density of the protein bands in densitometric scanning units (DSU) to those of the baseline sample and using the formula: Activity Index=[PIU of kinase band/DSU of BTK protein band]test sample :[PIU of kinase band/DSU of BTK protein band]baseline control sample. Horse radish peroxidase-conjugated sheep anti-mouse, donkey anti-rabbit secondary antibodies and ECL reagents were purchased from Amersham (Oakbrook, Ill.).

RBL-2H3 mast cells [1] = assay: β-hexosaminidase release from IgE/antigen stimulated RBL-2H3 mast cells; assay type: cell-based; settings: 1 hour preincubation, IgE/DNP-BSA challenge 30 minutes
Experimental: (§1) RBL-2H3 cells were sensitized with monoclonal anti-DNP IgE antibody (0.24 mg/ml) for 1 hour at 37° C. in a 48-well tissue culture plate. RBL-2H3 cells were allowed to adhere to the plate, whereas bone marrow mast cells (BMMC) were used in suspension. Unbound IgE was removed by washing the cells with phosphate buffered saline. After washing the BMMC were re-suspended in RPMI-hepes buffer. PIPES-buffered saline containing 1 mM calcium chloride was added to the monolayers of the RBL-2H3 cells.
(§2) To study the effects of compound HI-D12, mast cells were incubated with compound HI-D12 at the indicated concentrations or vehicle for 1 hour prior to challenge. The cells were challenged with 20 ng/ml DNP-BSA for 30 minutes at 37° C. The plate was then centrifuged at 200 g for 10 minutes at 4° C. Supernatants were removed and saved. RBL-2H3 cell pellets were washed with phosphate buffered saline and solubilized in PIPES buffered saline containing 0.1% Triton X-100.
(§3) Leukotriene (LT) C4 levels were estimated in cell free supernatants by immunoassay using (LT) C4 ELISA kits obtained from Cayman Company (Ann Arbor, Mich.), according to the manufacturer instructions. β-hexosaminidase release was estimated in cell free supernatants and Triton X-100 solubilized pellets, using the method described in Ozawa et al, 1993, J. Biol. Chem., 268:1749-1756.

BALB/c mice = assay: Passive cutaneous anaphylaxis in mice (Evans blue dye extravasation); assay type: in vivo
Experimental: In order to examine the effect of HI-D12 on passive cutaneous anaphylaxis in mice, dorsal sides of the ears of BALB/c mice were injected intradermally with 20 ng of DNP-IgE (left ears) or PBS (right ears) in 20 μL volume using a 30-gauge needle, as previously described (Miyajima et. al., 1997, J. Clin. Invest. 99:901-914). After 20 hours, mice were treated with compound HI-D12 (15 or 50 mg/kg i.p.) twice at 1 hour intervals prior to the antigen challenge. Control mice were treated with an equal volume of vehicle. Thirty minutes after the last dose of compound HI-D12 or vehicle, mice were challenged with 100 μg antigen (DNP-BSA) in 200 μl 2% Evans blue dye intravenously. Mice were sacrificed by cervical dislocation 30 minutes after the antigen challenge. For quantitation of Evans blue dye extravasation as a measure of anaphylaxis-associated vascular hyperpermeability, 8 mm skin specimens were removed from the ears of mice, minced in 2 ml formamide and incubated at 80° C. for 2 hours in water bath to extract the dye. The absorbance was read at […]. The data were expressed as plasma exudation indices (i.e., times increase in optical density over PBS treated ears at 620 nm).

RBL-2H3 mast cells [2] = assay: Leukotriene C4 release from IgE/antigen stimulated RBL-2H3 mast cells (LTC4 ELISA); assay type: cell-based; settings: 1 hour preincubation, IgE/DNP-BSA challenge 30 minutes
Experimental: as §1, §2, §3

| inhibition of recombinant BTK, concentration dependence (recombinant BTK) | IC50 (recombinant BTK) | Compound | effect on release of preformed granule-associated β-hexosaminidase (RBL-2H3 mast cells [1]) | tolerability of dose level (BALB/c mice; 50 mg/kg dose level) | inhibition of IgE/antigen induced plasma exudation (BALB/c mice; 50 mg/kg i.p., twice prior to antigen challenge) | inhibition of LTC4 release (RBL-2H3 mast cells [2]) |
| --- | --- | --- | --- | --- | --- | --- |
| in a concentration-dependent fashion | 130 µM | CCCc1cc(=O)oc2c3c(c4c(c12)OC(C)(C)C=C4)O[C@H](C)[C@@H](C)[C@@H]3O (relative stereo) [HI-D63, (±)-Calanolide A] |  |  |  |  |
| in a concentration-dependent fashion | 110 µM | CCCc1cc(=O)oc2c3c(c4c(c12)OC(C)(C)C=C4)O[C@H](C)[C@@H](C)C3=O (relative stereo) [HI-D86, 10,11-trans-Dihydro-6,6,10,11-tetramethyl-4-propyl-2H,6H,12H-benzo[2-b: 3,4-b':5,6-b"]tripyran-2,12-dione] |  |  |  |  |

| Compound | inhibition of recombinant BTK, concentration dependence (recombinant BTK) | IC50 (recombinant BTK) | effect on release of preformed granule-associated β-hexosaminidase (RBL-2H3 mast cells [1]) | tolerability of dose level (BALB/c mice; 50 mg/kg dose level) | inhibition of IgE/antigen induced plasma exudation (BALB/c mice; 50 mg/kg i.p., twice prior to antigen challenge) | inhibition of LTC4 release (RBL-2H3 mast cells [2]) |
| --- | --- | --- | --- | --- | --- | --- |
| CCCc1cc(=O)oc2c(C(=O)CC)c(O)c3c(c12)OC(C)(C)C=C3 [HI-D12, 6,6 Dimethyl-9-hydroxy-10-propionyl-4-propyl-2H,6H-benzo[1,2-b: 3,4-b']dipyran-2-one] | in a concentration-dependent fashion | 29 µM | did not prevent the release of preformed granule-associated β-hexosaminidase | nontoxic | 70% | inhibited the release of the newly synthesized arachidonic acid metabolite LTC4 in a concentration-dependent fashion |
